Measurements: publication PMC8305076, “Comprehensive Evaluation of Biological Effects of Pentathiepins on Various Human Cancer Cell Lines and Insights into Their Mode of Action” (International Journal of Molecular Sciences, 2021)
Like-named read-outs stand apart in the source and are kept apart here.

Assays:
RT-4 = assay: MTT cell viability assay; type: cell-based; conditions: Homo sapiens, 48 h
PATU-8902 = assay: MTT cell viability assay; type: cell-based; conditions: Homo sapiens; for IC50: 48 h
Siso = assay: MTT cell viability assay; type: cell-based; conditions: Homo sapiens; for IC50: 48 h
YAPC = assay: MTT cell viability assay; type: cell-based; conditions: Homo sapiens; for IC50: 48 h
A-427 = assay: MTT cell viability assay; type: cell-based; conditions: Homo sapiens, 48 h
A2780 = assay: MTT cell viability assay; type: cell-based; conditions: Homo sapiens; for IC50: 48 h
LCLC-103H = assay: MTT cell viability assay; type: cell-based; conditions: Homo sapiens, 48 h
Kyse-70 = assay: MTT cell viability assay; type: cell-based; conditions: Homo sapiens, 48 h
A2780cis = assay: MTT cell viability assay; type: cell-based; conditions: Homo sapiens, 48 h
HAP-1.KO.GPx1 = assay: MTT cell viability assay; type: cell-based; conditions: Homo sapiens; for IC50: 48 h
HAP-1 and HAP-1.KO.GPx1 = assay: DCFDA ROS assay with GSH added to the medium; type: cell-based, human; conditions: 25 µM pentathiepin plus 3 or 30 µM GSH in medium, 15 min
Protocol: As thiols are supposedly needed for the activation of the pentathiepins, the influence of additional glutathione added to the culture medium during treatment on the intracellular ROS levels was assessed. In these experiments, 3 or 30 µM of GSH were added to the medium containing 25 µM of pentathiepin or solvent, respectively (Figure 9).
In order to quantify intracellular ROS, we performed a flow cytometric assay based on the ROS-sensor 2′,7′-dichlorofluorescein diacetate (DCFDA). […] Per condition, 250,000 cells were seeded in 2 mL of medium per well of a 6-well plate and allowed to adhere overnight. For measurement of acute ROS, the cells were stained with 1 mL of a 20 µM DCFDA-PBS solution for 30 min under standard incubation conditions. […] After removing the solution and washing again with PBS, the cells were detached by using 0.5 mL of a diluted trypsin/EDTA-PBS solution (25%) and harvested with 1 mL of culture medium by carefully rinsing the wells. The cell suspension was transferred to 1.5 mL tubes, centrifuged for 5 min at 500× g, and washed with 1 mL of PBS. After removing the supernatant, each pellet was resuspended in 0.5 mL of PBS for measurement via the MACSquant Analyzer 10 at λEx/Em = 488/530 nm. Relative ROS levels resulting from treatment with pentathiepin were calculated by relating the fluorescence intensity of treated samples to the negative control. For the experiments covering periods of 24 and 48 h, the cells were incubated with the compounds first and stained with DCFDA afterwards. To assess the influence of additional GSH, we included 3 or 30 µM GSH to the medium containing 25 µM of pentathiepin, and the protocol was followed as described.

[1] = hypoxic (1% O2), read-out: IC50 MTT-H mean
[2] = normoxic (19% O2), read-out: IC50 MTT-N mean
[3] = calculated via GraphPad QuickCalcs from MTT IC50 and slope factor

How did the IC50 (RT-4; [1]) turn out when `CCOc1c2c(c3ccc(C(=O)N4CCN(S(=O)(=O)c5ccc(C)cc5)CC4)cn13)SSSSS2` [Compound 6, (6-Ethoxy-[1,2,3,4,5]pentathiepino[6,7-a]indolizin-9-yl)(4-tosylpiperazinyl)methanone] was run?
Its IC50 is 5050 nM.

What about the IC50 (RT-4; [2]) of the same compound?
The IC50 was 1550 nM.

What about the IC50 (PATU-8902; [1]) of the same compound?
The IC50 was > 10000 nM.

And the IC50 (PATU-8902; [2])?
The IC50 was 2980 nM.

And the IC90 (PATU-8902; [3])?
The IC90 was 7580 nM.

What about the IC50 (Siso; [1]) of the same compound?
Its IC50 is > 10000 nM.

And the IC50 (Siso; [2])?
Its IC50 is 3260 nM.

And the IC90 (Siso; [3])?
The IC90 was 5070 nM.

What about the IC50 (YAPC; [1]) of the same compound?
Its IC50 is 3720 nM.

What about the IC50 (YAPC; [2]) of the same compound?
The IC50 was 5170 nM.

And the IC90 (YAPC; [3])?
Its IC90 is 17900 nM.

What about the IC50 (A-427; [1]) of the same compound?
Its IC50 is 1390 nM.

And the IC50 (A-427; [2])?
The IC50 was 1790 nM.

And the IC50 (A2780; [1])?
Its IC50 is 2110 nM.

What about the IC50 (A2780; [2]) of the same compound?
Its IC50 is 891 nM.

And the IC90 (A2780; [3])?
Its IC90 is 2390 nM.

What about the IC50 (LCLC-103H; [1]) of the same compound?
Its IC50 is 2530 nM.

What about the IC50 (LCLC-103H; [2]) of the same compound?
The IC50 was 2820 nM.

What about the IC50 (Kyse-70; [1]) of the same compound?
Its IC50 is > 10000 nM.

What about the IC50 (Kyse-70; [2]) of the same compound?
Its IC50 is 1950 nM.

What about the IC50 (A2780cis; [1]) of the same compound?
The IC50 was 1720 nM.

What about the IC50 (A2780cis; [2]) of the same compound?
Its IC50 is 1510 nM.

What about the IC50 (HAP-1.KO.GPx1; [1]) of the same compound?
Its IC50 is 1840 nM.

What about the IC50 (HAP-1.KO.GPx1; [2]) of the same compound?
Its IC50 is 778 nM.

What about the IC90 (HAP-1.KO.GPx1; [3]) of the same compound?
Its IC90 is 1460 nM.

And the “effect of added GSH on intracellular ROS” value (HAP-1 and HAP-1.KO.GPx1)?
Its value is “tendency toward decreased oxidative stress”.
